From patent US11001564B2, “Substituted chromane-8-carboxamide compounds and analogues thereof, and methods using same” (priority 2016, dated 2021)
Where a name gives a salt, the structure may show the parent alone. Read-outs that look alike come from different tables or passages of the source.

System: HBV rcDNA in HepDE19 cells
Assay: HepDE19 assay with bDNA quantitation of HBV rcDNA
Format: cell-based, hepatitis B virus (HBV)
Outline: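 HepG2-derived HepDE19 cells, switched to Tet-free medium, were exposed 7 days at 37 °C to compound (8-point ½-log series from 25 μM, 0.5% DMSO). HBV rcDNA measured by bDNA assay with HBV-specific probes; EC50/EC90 by 4-parameter fit. CC50 from CellTiter-Glo ATP on replicate plates after 4 days.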

[1] = Hepatitis B virus, HepDE19, 168 h, HepDE19 cells, 7 day incubation, rcDNA by Quantigene 2.0 bDNA assay, read-out: DE-19 bDNA EC50
[2] = Hepatitis B virus, HepDE19, 168 h, read-out: DE-19 bDNA EC50, HepDE19 cells, 7 day incubation, rcDNA by Quantigene 2.0 bDNA assay

Row | SMILES | EC50 [1] [nM] | EC50 [2] [nM] | other results
1 | Cc1cc(NC(=O)c2ccc(F)c3c2OCC[C@@H]3NC(=O)OC[C@@H]2CCC(=O)N2)ccc1F [Compound 137, ((S)-5-Oxopyrrolidin-2-yl)methyl ((S)-5-fluoro-8-((4-fluoro-3-methylphenyl)carbamoyl)chroman-4-yl)carbamate] | 900 | – | –
2 | O=C(Nc1ccc(F)c(Cl)c1)c1ccc(F)c2c1OCCC2=O [Compound 79, N-(3-chloro-4-fluorophenyl)-5-fluoro-4-oxochromane-8-carboxamide] | 5300 | – | –
3 | COC(=O)N[C@H]1CCOc2c(C(=O)Nc3ccc(F)c(C)c3)cccc21 [Compound 50, Methyl (S)-(8-((4-fluoro-3-methylphenyl)carbamoyl)chroman-4-yl)carbamate] | 650 | – | –
4 | COC(=O)N[C@H]1CCOc2c(C(=O)Nc3cc(F)cc(F)c3)cccc21 [Compound 46, Methyl (S)-(8-((3,5-difluorophenyl)carbamoyl)chroman-4-yl)carbamate] | 5800 | – | –
5 | Cc1cc(NC(=O)c2ccc(F)c3c2OCC[C@@H]3NC(=O)NCc2ccccn2)ccc1F [Compound 150, (S)-5-Fluoro-N-(4-fluoro-3-methylphenyl)-4-(3-(pyridin-2-ylmethyl)ureido)chromane-8-carboxamide] | – | 1200 | –
6 | COC(=O)NC1CCN(C)c2c(C(=O)Nc3ccc(F)c(F)c3)cccc21 (single isomer, unassigned) [Compound 177, Methyl (8-((3,4-difluorophenyl)carbamoyl)-1-methyl-1,2,3,4-tetrahydroquinolin-4-yl)carbamate] | – | 2300 | –
7 | COC(=O)N[C@H]1CCOc2c(C(=O)NCc3ccc(F)cc3)cccc21 [Compound 31, Methyl (S)-(8-((4-fluorobenzyl)carbamoyl)chroman-4-yl)carbamate] | 17000 | – | –
8 | O=C(N[C@@H]1CCOc2c(C(=O)Nc3ccc(F)c(Cl)c3)ccc(F)c21)OCc1ccccn1 [Compound 106, pyridin-2-ylmethyl (R)-(8-((3-chloro-4-fluorophenyl)carbamoyl)-5-fluorochroman-4-yl)carbamate] | 20000 | – | –
9 | CN1CCC(NC(=O)OCc2ccccn2)c2cccc(C(=O)Nc3ccc(F)c(Cl)c3)c21 (single isomer, unassigned) [Compound 183, Pyridin-2-ylmethyl (8-((3-chloro-4-fluorophenyl)carbamoyl)-1-methyl-1,2,3,4-tetrahydroquinolin-4-yl)carbamate] | – | – | EC50 (HepDE19 cells, 7 day incubation, rcDNA by Quantigene 2.0 bDNA assay, read-out: DE-19 bDNA EC50): 720 nM
10 | O=C(N[C@H]1CCOc2c(C(=O)Nc3ccc(F)c(F)c3)cccc21)OCc1cccnc1 [Compound 23] | – | 3000 | –
11 | Cc1cc(NC(=O)c2ccc(F)c3c2OCC[C@@H]3NC(=O)OC[C@@H]2CCC(=O)N2C)ccc1F [Compound 166, ((S)-1-Methyl-5-oxopyrrolidin-2-yl)methyl ((S)-5-fluoro-8-((4-fluoro-3-methylphenyl)carbamoyl)chroman-4-yl)carbamate] | 1300 | – | –
12 | O=C(N[C@H]1CCOc2c(C(=O)Nc3ccc(F)c(F)c3)cccc21)OCc1ncccc1Cl [Compound 123, (3-Chloropyridin-2-yl)methyl (S)-(8-((3,4-difluorophenyl)carbamoyl)chroman-4-yl)carbamate hydrochloride] | – | 8800 | –
13 | Cc1cc(NC(=O)c2ccc(F)c3c2OCC[C@@H]3NC(=O)OCCN2CCCC2=O)ccc1F [Compound 143, 2-(2-Oxopyrrolidin-1-yl)ethyl (S)-(5-fluoro-8-((4-fluoro-3-methylphenyl)carbamoyl)chroman-4-yl)carbamate] | 1200 | – | –
